Laboratory results published in US20240262826A1, “WILD TYPE KIT INHIBITORS” (Blueprint Medicines Corporation, priority 2022, published 2024).

Assays:
[1] = molecular target: T1, wild type c-kit (Homo sapiens (Human), UniProt P10721); assay: MSD Phospho c-Kit (Tyr721) Assay Whole Cell Lysate Kit in SCF-stimulated M-07e cells (pKIT assay, marked *); type: cell-based; details: Meso Scale Discovery (MSD) assay (values marked *)
Experimental: The ability of compounds of the disclosure (described herein as test compounds) to inhibit autophosphorylation of wild type c-kit was measures using either a PathScan phospho c-kit (Tyr719) sandwich ELISA (CST #7298) or a Phospho c-Kit (Tyr721) Assay Whole Cell Lysate Kit (MSD: 515DPD/catalog number K15119D-2).
For the MSD Phospho c-Kit (Tyr721) Assay Whole Cell Lysate Kit: M-07e cells were maintained in Iscove's Modified Dulbecco's Medium (IMDM) media supplemented with 10% FBS, 5 ng/ml granulocyte-macrophage colony-stimulating factor (GM-CSF) and 100 units/mL Penicillin-Streptomycin, and grown in a 37° C., 5% CO2 in a humidified tissue culture incubator. M-07e cells were washed with phenol red-free, serum-free, GM-CSF-free IMDM and seeded in the same media at 100,000 cells well in a volume of 50 ul in a 96-well U-bottom plate. The cells were incubated for 4 hours, followed by the addition of test compound at a final DMSO concentration of 0.25% for 60 min at 37° C. to generate an 8-point dose concentration series of test compounds. The cells were stimulated with 50 ng/ml human SCF for 10 min at room temperature. Cells were then lysed by the addition of 16.5 ul of PerkinElmer 5× AlphaLISA Lysis Buffer supplemented with Cell Signaling Technologies protease/phosphatase inhibitor. Lysis was encouraged by shaking at 4° C. for 30 minutes.
25 ul of lysate was transferred to the MSD plate and the plate was shaken at 700 rpm at room temperature for one hour, followed by washing 3 times with Tris wash buffer. Next, 25 ul of detection antibody solution (diluted from 50× stock in antibody dilution buffer) was added. After shaking at 700 rpm at room temperature for one hour, the plate was washed 3 times with Tris wash buffer. The plate was then read on MSD Sector Imager immediately after 150 ul of reading buffer added to each well.
An IC50 was calculated using a 4-parameter logistic nonlinear regression.

[2] = molecular target: T1, wild type c-kit; assay: PathScan phospho c-kit (Tyr719) sandwich ELISA in SCF-stimulated M-07e cells (pKIT assay); type: cell-based; details: ELISA assay (values not marked *)
How it was run: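 Serum- and GM-CSF-starved M-07e cells (4 h) pretreated 60 min at 37 °C with an 8-point compound series in duplicate (0.25% DMSO), then stimulated with human SCF (500 ng/mL stock) 10 min at room temperature. Lysate c-kit Tyr719 phosphorylation quantified by sandwich ELISA with TMB read-out; IC50 from 4-parameter logistic fit.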

[3] = molecular target: human P-glycoprotein (P-gp, MDR1) (Homo sapiens (Human), UniProt P08183); assay: MDCK-MDR1 cell monolayer drug transport assay (P-gp efflux ratio); type: in vitro ADME; details: pH 7.4, MDCK-MDR1 cells; for efflux ratio at 2 h, 1 µM: 1 uM concentration of compound, read-out: Pgp Efflux Ratio, 1 uM
Chain of human P-glycoprotein (P-gp, MDR1) (P08183 whole entry): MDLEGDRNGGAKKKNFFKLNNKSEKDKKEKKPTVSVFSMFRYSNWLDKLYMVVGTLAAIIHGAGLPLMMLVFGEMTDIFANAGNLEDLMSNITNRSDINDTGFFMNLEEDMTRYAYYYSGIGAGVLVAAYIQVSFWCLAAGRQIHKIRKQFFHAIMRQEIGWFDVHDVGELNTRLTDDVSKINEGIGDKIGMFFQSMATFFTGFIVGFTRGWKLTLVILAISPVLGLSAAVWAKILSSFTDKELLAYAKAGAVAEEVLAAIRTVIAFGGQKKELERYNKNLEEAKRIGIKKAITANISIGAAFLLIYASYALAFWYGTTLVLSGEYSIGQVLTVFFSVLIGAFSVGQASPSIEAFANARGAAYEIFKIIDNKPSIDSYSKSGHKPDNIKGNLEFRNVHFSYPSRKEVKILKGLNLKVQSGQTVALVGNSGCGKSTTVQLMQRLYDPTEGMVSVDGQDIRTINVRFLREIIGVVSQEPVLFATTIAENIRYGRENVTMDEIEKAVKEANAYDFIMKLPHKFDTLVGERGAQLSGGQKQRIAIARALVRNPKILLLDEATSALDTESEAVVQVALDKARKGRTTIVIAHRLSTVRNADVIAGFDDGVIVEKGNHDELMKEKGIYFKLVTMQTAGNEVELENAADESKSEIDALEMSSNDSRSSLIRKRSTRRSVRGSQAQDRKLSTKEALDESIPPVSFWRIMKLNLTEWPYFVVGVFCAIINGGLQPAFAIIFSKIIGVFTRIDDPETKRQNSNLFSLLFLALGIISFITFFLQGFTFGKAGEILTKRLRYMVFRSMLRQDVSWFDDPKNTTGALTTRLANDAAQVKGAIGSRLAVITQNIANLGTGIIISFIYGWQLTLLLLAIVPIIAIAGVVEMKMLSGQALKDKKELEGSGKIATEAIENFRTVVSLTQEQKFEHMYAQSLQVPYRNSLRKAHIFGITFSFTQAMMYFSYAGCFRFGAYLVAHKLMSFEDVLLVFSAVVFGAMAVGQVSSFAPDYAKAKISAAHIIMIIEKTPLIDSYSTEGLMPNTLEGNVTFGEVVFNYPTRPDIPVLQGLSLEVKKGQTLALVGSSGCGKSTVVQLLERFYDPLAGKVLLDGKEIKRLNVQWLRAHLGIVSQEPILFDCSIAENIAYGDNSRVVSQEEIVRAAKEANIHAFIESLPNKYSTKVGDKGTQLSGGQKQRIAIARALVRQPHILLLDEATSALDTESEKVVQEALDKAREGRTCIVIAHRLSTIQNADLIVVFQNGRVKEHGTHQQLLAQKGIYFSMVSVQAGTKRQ
How it was run: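 P-gp substrate potential tested in MDCK-MDR1 monolayers on Transwell supports, cultured 4-8 days; monolayers with TEER <42 ohms·cm2 discarded. Transport run in HBSS (10 mM HEPES, pH 7.4) at 37° C with compound working solution at 1 μM.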

T1 sequence (P10721 26-976): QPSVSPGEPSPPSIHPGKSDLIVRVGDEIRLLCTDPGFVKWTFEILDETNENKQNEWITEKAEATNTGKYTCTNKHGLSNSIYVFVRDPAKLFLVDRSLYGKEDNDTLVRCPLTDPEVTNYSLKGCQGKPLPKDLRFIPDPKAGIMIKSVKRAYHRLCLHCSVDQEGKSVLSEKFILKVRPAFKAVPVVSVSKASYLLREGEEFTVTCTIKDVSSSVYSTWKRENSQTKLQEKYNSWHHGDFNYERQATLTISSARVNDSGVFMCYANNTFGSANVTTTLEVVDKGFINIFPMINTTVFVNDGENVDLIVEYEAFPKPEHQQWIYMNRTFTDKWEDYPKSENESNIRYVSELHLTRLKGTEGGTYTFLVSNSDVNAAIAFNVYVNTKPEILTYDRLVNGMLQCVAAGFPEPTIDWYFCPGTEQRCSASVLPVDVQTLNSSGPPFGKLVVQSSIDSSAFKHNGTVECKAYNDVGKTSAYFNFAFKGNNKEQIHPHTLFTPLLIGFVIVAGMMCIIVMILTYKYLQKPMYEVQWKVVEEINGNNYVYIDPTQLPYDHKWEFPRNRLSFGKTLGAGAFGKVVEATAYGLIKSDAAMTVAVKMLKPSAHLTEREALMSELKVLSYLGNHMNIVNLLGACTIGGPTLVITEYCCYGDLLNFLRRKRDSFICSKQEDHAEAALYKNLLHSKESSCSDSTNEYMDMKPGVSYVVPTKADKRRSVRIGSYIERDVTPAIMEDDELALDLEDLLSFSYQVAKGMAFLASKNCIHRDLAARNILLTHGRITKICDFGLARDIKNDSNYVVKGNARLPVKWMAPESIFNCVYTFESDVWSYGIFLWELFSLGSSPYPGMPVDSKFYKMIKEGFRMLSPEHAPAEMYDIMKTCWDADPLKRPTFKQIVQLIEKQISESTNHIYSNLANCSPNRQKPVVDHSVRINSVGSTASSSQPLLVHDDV

Compound	IC50 [1]	IC50 [2]	efflux ratio at 2 h, 1 µM [3]	efflux ratio at 2 h, 0.1 µM ([3]; 0.1 uM concentration of compound (denoted by **), read-out: Pgp Efflux Ratio)
Cc1ccc(-c2nnn(C[C@@H]3CC3(F)F)n2)cc1NC(=O)c1cnn2ccccc12 (single isomer, unassigned) [Example 25, (S)—N-(5-(2-((2,2-difluorocyclopropyl)methyl)-2H-tetrazol-5-yl)-2-methylphenyl)pyrazolo[1,5-a]pyridine-3-carboxamide or (R)—N-(5-(2-((2,2-difluorocyclopropyl)methyl)-2H-tetrazol-5-yl)-2-methylphenyl)pyrazolo[1,5-a]pyridine-3-carboxamide]	7.6 nM	–	–	–
Cc1ccc(-c2nnn(C[C@H]3CC3(F)F)n2)cc1NC(=O)c1cnn2ccccc12 (single isomer, unassigned) [Example 26, (R)—N-(5-(2-((2,2-difluorocyclopropyl)methyl)-2H-tetrazol-5-yl)-2-methylphenyl)pyrazolo[1,5-a]pyridine-3-carboxamide or (S)—N-(5-(2-((2,2-difluorocyclopropyl)methyl)-2H-tetrazol-5-yl)-2-methylphenyl)pyrazolo[1,5-a]pyridine-3-carboxamide]	2.4 nM	–	–	–
Cc1ccc(-c2nnn([C@H](C)C3CC3)n2)cc1NC(=O)c1cnn2ccccc12 (single isomer, unassigned) [Example 37, (R)-N-(5-(2-(1-cyclopropylethyl)-2H-tetrazol-5-yl)-2-methylphenyl)pyrazolo[1,5-a]pyridine-3-carboxamide or (S)-N-(5-(2-(1-cyclopropylethyl)-2H-tetrazol-5-yl)-2-methylphenyl)pyrazolo[1,5-a]pyridine-3-carboxamide]	6.2 nM	–	–	–
Cc1ccc(-c2nnn(C(C)C3CCOCC3)n2)cc1NC(=O)c1cnn2ccccc12 (single isomer, unassigned) [Example 39, (R)-N-(2-methyl-5-(2-(1-(tetrahydro-2H-pyran-4-yl)ethyl)-2H-tetrazol-5-yl)phenyl)pyrazolo[1,5-a]pyridine-3-carboxamide or (S)-N-(2-methyl-5-(2-(1-(tetrahydro-2H-pyran-4-yl)ethyl)-2H-tetrazol-5-yl)phenyl)pyrazolo[1,5-a]pyridine-3-carboxamide]	9.1 nM	–	–	–
Cc1ccc(-c2nnn(C[C@H]3CCCCO3)n2)cc1NC(=O)c1cnn2ccccc12 (single isomer, unassigned) [Example 40, (S)-N-(2-methyl-5-(2-((tetrahydro-2H-pyran-2-yl)methyl)-2H-tetrazol-5-yl)phenyl)pyrazolo[1,5-a]pyridine-3-carboxamide or (R)-N-(2-methyl-5-(2-((tetrahydro-2H-pyran-2-yl)methyl)-2H-tetrazol-5-yl)phenyl)pyrazolo[1,5-a]pyridine-3-carboxamide]	3.1 nM	–	–	–
Cc1ccc(-c2nnn(CC[C@@](C)(O)C(F)(F)F)n2)cc1NC(=O)c1cnn2ccccc12 (single isomer, unassigned) [Example 41, (R)-N-(2-methyl-5-(2-(4,4,4-trifluoro-3-hydroxy-3-methylbutyl)-2H-tetrazol-5-yl)phenyl)pyrazolo[1,5-a]pyridine-3-carboxamide or (S)-N-(2-methyl-5-(2-(4,4,4-trifluoro-3-hydroxy-3-methylbutyl)-2H-tetrazol-5-yl)phenyl)pyrazolo[1,5-a]pyridine-3-carboxamide]	1.8 nM	–	–	–
Cc1ccc(-c2nnn(C3CC4(C3)CC4(F)F)n2)cc1NC(=O)c1cnn2ccccc12 (single isomer, unassigned) [Example 42, N-(5-(2-((3r,5r)-1,1-difluorospiro [2.3]hexan-5-yl)-2H-tetrazol-5-yl)-2-methylphenyl)pyrazolo[1,5-a]pyridine-3-carboxamide or N-(5-(2-((3s,5s)-1,1-difluorospiro[2.3]hexan-5-yl)-2H-tetrazol-5-yl)-2-methylphenyl)pyrazolo[1,5-a]pyridine-3-carboxamide]	3.8 nM	–	–	–
Cc1ccc(-c2nnn(CC3CCOCC3)n2)cc1NC(=O)c1cnn2ccccc12 [Example 3, N-(2-methyl-5-(2-((tetrahydro-2H-pyran-4-yl)methyl)-2H-tetrazol-5-yl)phenyl)pyrazolo[1,5-a]pyridine-3-carboxamide]	8.4 nM	–	–	–
Cc1ccc(-n2nnc(C3CC3)n2)cc1NC(=O)c1cnn2cc(-c3cnn(CC4(O)CCOCC4)c3)cc(F)c12 [Example 277, N-(5-(5-cyclopropyl-2H-tetrazol-2-yl)-2-methylphenyl)-4-fluoro-6-(1-((4-hydroxytetrahydro-2H-pyran-4-yl)methyl)-1H-pyrazol-4-yl)pyrazolo[1,5-a]pyridine-3-carboxamide]	–	0.5 nM	3	–

Further lines, results first:

IC50 [1]	IC50 [2]	efflux ratio at 2 h, 1 µM [3]	efflux ratio at 2 h, 0.1 µM ([3]; 0.1 uM concentration of compound (denoted by **), read-out: Pgp Efflux Ratio)	Compound
7.2 nM	–	–	–	Cc1ccc(-c2nnn([C@H](C)C3CC3)n2)cc1NC(=O)c1cnn2ccccc12 (single isomer, unassigned) [Example 38, (S)-N-(5-(2-(1-cyclopropylethyl)-2H-tetrazol-5-yl)-2-methylphenyl)pyrazolo[1,5-a]pyridine-3-carboxamide or (R)-N-(5-(2-(1-cyclopropylethyl)-2H-tetrazol-5-yl)-2-methylphenyl)pyrazolo[1,5-a]pyridine-3-carboxamide]
–	0.8 nM	2.3	–	COC[C@@H](O)Cn1nc(C)c(-c2ccn3ncc(C(=O)Nc4cc(-c5nnn(C)n5)ccc4C)c3c2)c1C [Example 245, (S)-5-(1-(2-hydroxy-3-methoxypropyl)-3,5-dimethyl-1H-pyrazol-4-yl)-N-(2-methyl-5-(2-methyl-2H-tetrazol-5-yl)phenyl)pyrazolo[1,5-a]pyridine-3-carboxamide]
–	0.6 nM	3.5	–	COC[C@@H](O)Cn1ncc(-c2ccn3ncc(C(=O)Nc4cc(-c5nnn(C6CC6)n5)ccc4Cl)c3c2)c1C [Example 248, (S)-N-(2-chloro-5-(2-cyclopropyl-2H-tetrazol-5-yl)phenyl)-5-(1-(2-hydroxy-3-methoxypropyl)-5-methyl-1H-pyrazol-4-yl)pyrazolo[1,5-a]pyridine-3-carboxamide]
–	0.4 nM	–	1.8	Cc1nn(CC(C)(C)O)cc1-c1ccn2ncc(C(=O)Nc3cc(-c4nnn(C5CC5)n4)c(F)cc3Cl)c2c1 [Example 251, N-(2-chloro-5-(2-cyclopropyl-2H-tetrazol-5-yl)-4-fluorophenyl)-5-(1-(2-hydroxy-2-methylpropyl)-3-methyl-1H-pyrazol-4-yl)pyrazolo[1,5-a]pyridine-3-carboxamide]
–	3.7 nM	5.1	–	COC[C@@H](O)Cn1cc(-c2ccn3ncc(C(=O)Nc4cc(-c5nnn(C6CC6)n5)c(C)cc4Cl)c3c2)cn1 [Example 252, (S)-N-(2-chloro-5-(2-cyclopropyl-2H-tetrazol-5-yl)-4-methylphenyl)-5-(1-(2-hydroxy-3-methoxypropyl)-1H-pyrazol-4-yl)pyrazolo[1,5-a]pyridine-3-carboxamide]
–	0.7 nM	8.9	–	COC[C@@H](O)Cn1cc(-c2ccn3ncc(C(=O)Nc4cc(-c5nnn(C6CC6)n5)c(F)cc4C)c3c2)c(C2CC2)n1 [Example 257, (S)-5-(3-cyclopropyl-1-(2-hydroxy-3-methoxypropyl)-1H-pyrazol-4-yl)-N-(5-(2-cyclopropyl-2H-tetrazol-5-yl)-4-fluoro-2-methylphenyl)pyrazolo[1,5-a]pyridine-3-carboxamide]
–	0.3 nM	3.4	–	C[C@](O)(CO)Cn1cc(-c2ccn3ncc(C(=O)Nc4cc(-c5nnn(C6CC6)n5)ccc4Cl)c3c2)cn1 [Example 266, (R)-N-(2-chloro-5-(2-cyclopropyl-2H-tetrazol-5-yl)phenyl)-5-(1-(2,3-dihydroxy-2-methylpropyl)-1H-pyrazol-4-yl)pyrazolo[1,5-a]pyridine-3-carboxamide]
–	0.6 nM	1.7	–	Cc1nn(C[C@H]2CN(C)CCO2)c(C)c1-c1ccn2ncc(C(=O)Nc3cc(-c4nnn(C5CC5)n4)ccc3Cl)c2c1 [Example 274, (R)-N-(2-chloro-5-(2-cyclopropyl-2H-tetrazol-5-yl)phenyl)-5-(3,5-dimethyl-1-((4-methylmorpholin-2-yl)methyl)-1H-pyrazol-4-yl)pyrazolo[1,5-a]pyridine-3-carboxamide]
